“Also recorded” adds a separate entry of the source.
Molecular target: T1, hDMT1 (Homo sapiens, UniProt P49281)
T1 sequence (P49281 1-568): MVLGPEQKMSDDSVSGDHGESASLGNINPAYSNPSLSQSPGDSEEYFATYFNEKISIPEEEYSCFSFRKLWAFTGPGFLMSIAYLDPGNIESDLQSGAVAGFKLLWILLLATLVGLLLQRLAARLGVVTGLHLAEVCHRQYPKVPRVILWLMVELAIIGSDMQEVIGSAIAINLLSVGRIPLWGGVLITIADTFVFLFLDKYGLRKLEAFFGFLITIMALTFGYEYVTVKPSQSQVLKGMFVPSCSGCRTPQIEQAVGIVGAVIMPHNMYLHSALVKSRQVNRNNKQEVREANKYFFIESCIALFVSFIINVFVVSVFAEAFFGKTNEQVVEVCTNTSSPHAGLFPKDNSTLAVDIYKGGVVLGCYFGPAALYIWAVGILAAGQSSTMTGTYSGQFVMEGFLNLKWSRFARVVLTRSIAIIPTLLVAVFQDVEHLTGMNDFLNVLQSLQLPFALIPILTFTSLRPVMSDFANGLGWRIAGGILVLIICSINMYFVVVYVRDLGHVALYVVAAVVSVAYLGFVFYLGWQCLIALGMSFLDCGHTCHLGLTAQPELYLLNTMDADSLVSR
Experiment: two-electrode voltage-clamp electrophysiology of Fe2+ evoked currents in hDMT1-injected Xenopus oocytes
Type: cell-based
Settings: Fe2+ 20 μM
Experimental: Fig. 3 Characterization of Fe^2+ transport inhibition by 1 and 13 in X. laevis oocytes (collected from frogs under license number BE60/18 conceded by the Veterinärdienst des Kantons BE, Sekretariat Tierversuche). (a) Upper panel: Average ^55Fe^2+-uptake (20 μM) by hDMT1-expressing and non-injected oocytes in the absence and the presence of the indicated compounds (10 μM). Data was normalized to ^55Fe^2+-uptake (pmol min^–1) in the absence of compounds represented as mean ± SD (16–29 oocytes). Lower panel: Net uptake of ^55Fe^2+ (20 μM) by hDMT1 in the absence and the presence of the indicated compounds (10 μM). For each batch of oocytes, uptake values were corrected for unspecific iron uptake in non-injected oocytes. Data were normalized to the mean iron uptake by hDMT1 WT (pmol min^–1) and represented as mean ± SD (14–34 oocytes). (b and c) Electrophysiology. […] For each trace, recorded currents were corrected for the background currents observed without substrate. (b) Representative traces recorded with hDMT1 injected oocytes (upper panel) and non-injected oocytes (lower panel). […] Statistical differences were assessed using T-test or Mann–Whitney U test (Fe^2+-uptake by hDMT1 WT vs. non-injected oocytes or vs. compound); p > 0.05 = ns; p < 0.001 = ***.
250 µM non-radioactive Fe2+ and 100 µM Ascorbic acid. Next, oocytes were solubilized with SDS 10% and 55Fe2+ content was determined by scintillation counting. To determine the total activity of the hDMT1-expressing oocytes, uptake of 55Fe2+ was determined also in the absence of any compound. […]
Electrophysiology methods. […] Then, the membrane voltage was held at -50 mV (Vh), and the current (nA) required to keep Vh constant was recorded along the experiments. These currents were measured with an OC-725 amplifier (Warner Instruments), low-pass filtered at 500 Hz, digitized at 5 kHz with a Digidata 1440 data acquisition system and captured using pClamp 10 software (Axon Instruments). […]

| SMILES | effect on hDMT1-induced currents (compound up to 10 μM) | IC50 of inhibition of Fe2+ evoked currents (currents at -70 mV, dose-response 0.01-10 μM) | IC50 (currents at -70 mV, dose-response 0.01-10 μM, read-out: IC50 of inhibition of Fe2+ evoked currents) |
| --- | --- | --- | --- |
| Cc1cc(=O)[nH]c(-n2nc3c(c2C)CCCC3)n1 [Compound 13] | no measurable effect on the recorded currents; also recorded: did not modulate hDMT1-induced currents | did not fit to the equation | – |
| N=C(N)SCc1cccc2c1oc1c(CSC(=N)N)cccc12 [Compound 1, reference compound] | – | – | 0.14 µM |

Reference: PMC7649969, “Pyrazolyl-pyrimidones inhibit the function of human solute carrier protein SLC11A2 (hDMT1) by metal chelation” (RSC Medicinal Chemistry, 2020)
